Experimental data published in the supplement of paper PMC11451515.

Test system: NOMO1
Assay: cell viability relative to DMSO control; higher = less cytotoxic
Conditions: 48 h
Procedure, shortened: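 NOMO1 or SEM (500 cells/well) or P12-Ichikawa (1000 cells/well) leukemia cells were adapted for at least four passages in each medium. They were seeded in 1536-well plates (5 μl) and pin-dosed with library compounds in DMSO over an 11-point threefold series, 47 μM to 0.79 nM. CellTiter-Glo One luminescence was read after 48 h at 37°C. Viability is the per-plate percentage relative to DMSO wells, with cell-free wells as background.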

[1] = HPLM + 10% dialyzed FBS, 0.000781 µM
[2] = HPLM + 10% dialyzed FBS, 0.00234 µM
[3] = HPLM + 10% dialyzed FBS, 0.00702 µM
[4] = HPLM + 10% dialyzed FBS, 0.0211 µM
[5] = HPLM + 10% dialyzed FBS, 0.0632 µM
[6] = HPLM + 10% dialyzed FBS, 0.19 µM
[7] = HPLM + 10% dialyzed FBS, 0.569 µM
[8] = HPLM + 10% dialyzed FBS, 1.71 µM
[9] = HPLM + 10% dialyzed FBS, 5.12 µM
[10] = HPLM + 10% dialyzed FBS, 15.4 µM
[11] = HPLM + 10% dialyzed FBS, 46.1 µM
[12] = RPMI 5 mM glucose + 10% FBS, 0.000781 µM
[13] = RPMI 5 mM glucose + 10% FBS, 0.00234 µM
[14] = RPMI 5 mM glucose + 10% FBS, 0.00702 µM
[15] = RPMI 5 mM glucose + 10% FBS, 0.0211 µM
[16] = RPMI 5 mM glucose + 10% FBS, 0.0632 µM
[17] = RPMI 5 mM glucose + 10% FBS, 0.19 µM
[18] = RPMI 5 mM glucose + 10% FBS, 0.569 µM
[19] = RPMI 5 mM glucose + 10% FBS, 1.71 µM
[20] = RPMI 5 mM glucose + 10% FBS, 5.12 µM
[21] = RPMI 5 mM glucose + 10% FBS, 15.4 µM
[22] = RPMI 5 mM glucose + 10% FBS, 46.1 µM
[23] = RPMI 5 mM glucose + 10% dialyzed FBS, 0.000781 µM
[24] = RPMI 5 mM glucose + 10% dialyzed FBS, 0.00234 µM
[25] = RPMI 5 mM glucose + 10% dialyzed FBS, 0.00702 µM
[26] = RPMI 5 mM glucose + 10% dialyzed FBS, 0.0211 µM
[27] = RPMI 5 mM glucose + 10% dialyzed FBS, 0.0632 µM
[28] = RPMI 5 mM glucose + 10% dialyzed FBS, 0.19 µM
[29] = RPMI 5 mM glucose + 10% dialyzed FBS, 0.569 µM
[30] = RPMI 5 mM glucose + 10% dialyzed FBS, 1.71 µM
[31] = RPMI 5 mM glucose + 10% dialyzed FBS, 5.12 µM
[32] = RPMI 5 mM glucose + 10% dialyzed FBS, 15.4 µM
[33] = RPMI 5 mM glucose + 10% dialyzed FBS, 46.1 µM

Compound	cell viability [1]	cell viability [2]	cell viability [3]	cell viability [4]	cell viability [5]	cell viability [6]	cell viability [7]	cell viability [8]	cell viability [9]	cell viability [10]	cell viability [11]	cell viability [12]	cell viability [13]	cell viability [14]	cell viability [15]	cell viability [16]	cell viability [17]	cell viability [18]	cell viability [19]	cell viability [20]	cell viability [21]	cell viability [22]	cell viability [23]	cell viability [24]	cell viability [25]	cell viability [26]	cell viability [27]	cell viability [28]	cell viability [29]	cell viability [30]	cell viability [31]	cell viability [32]	cell viability [33]
C[C@@H](O)[C@@H]1[C@H]2[C@@H](C)\C(=C(/N2C1=O)C(=O)OCOC(=O)C(C)(C)C)SC3CN(C3)/C4=N/CCS4	93.2%	93.2%	103%	111%	110%	113%	105%	102%	68.2%	60.8%	38.4%	92.3%	102%	113%	111%	101%	112%	101%	110%	109%	116%	104%	87.8%	106%	103%	119%	111%	126%	115%	120%	100%	84.5%	77.7%
CN(C)CCc1c[nH]c2ccc(C[C@H]3COC(=O)N3)cc12	104%	119%	106%	113%	106%	121%	127%	111%	104%	48.1%	9.77%	104%	98.6%	106%	101%	112%	97.3%	110%	106%	99.9%	59.2%	12.9%	96.4%	108%	106%	111%	116%	114%	108%	102%	109%	87.8%	20.1%
CC(=O)N1CCN(c2ccc(OC[C@H]3CO[C@](Cn4ccnc4)(c4ccc(Cl)cc4Cl)O3)cc2)CC1	126%	120%	123%	118%	117%	102%	129%	103%	98.8%	96.3%	80.4%	113%	111%	121%	114%	114%	107%	119%	106%	97.9%	98.2%	93.6%	111%	100%	120%	127%	127%	113%	103%	113%	126%	110%	89.3%
COc1cc(O)c2c(c1)C1OC1C[C@H](O)[C@H](O)C(=O)/C=C\C[C@H](C)OC2=O (some centres not stated)	92.7%	118%	104%	111%	126%	120%	122%	125%	108%	31.3%	12.5%	109%	99.9%	99%	120%	105%	96.7%	121%	103%	97.8%	50.4%	13.7%	93.5%	98%	105%	109%	110%	114%	113%	100%	94.7%	50.7%	17.5%
O=C(NC[C@H](O)CN1CCc2ccccc2C1)c1cc(NC2COC2)ncn1	93.5%	117%	173%	29.5%	64.5%	99.2%	101%	72.7%	70.7%	56.1%	38.6%	92.9%	80.4%	88.2%	99.3%	83%	89.9%	94.4%	92.6%	84.3%	75.1%	74.2%	83.5%	92.8%	93.5%	101%	84.7%	91.8%	68.4%	66.4%	81.4%	67.3%	63.3%
CC1(C)OC2CC3C4CC(F)C/5=C/C(=O)/C=C\C5(C)C4C(O)CC3(C)[C@@]2(O1)C(=O)CO (some centres not stated)	105%	111%	118%	119%	126%	117%	110%	124%	123%	124%	119%	113%	108%	102%	115%	121%	127%	116%	112%	117%	119%	119%	124%	113%	125%	122%	123%	150%	123%	138%	135%	119%	132%
CC(=O)C\1=C(/C)C2=CN=C(NC3=CC=C(C=N3)N4CCNCC4)N=C2N(C5CCCC5)C1=O	–	–	–	–	–	–	–	–	–	–	–	123%	118%	103%	113%	136%	110%	105%	96.7%	98%	87.1%	68.8%	113%	114%	111%	112%	107%	112%	96.3%	79.1%	80.9%	68.6%	60.1%
CC(C)C[C@H](NC(=O)[C@@H](NC(=O)c1cccc(-c2ccccc2)n1)[C@@H](C)O)B(O)O	–	–	–	–	–	–	–	–	–	–	–	94.7%	111%	115%	128%	66.2%	23.5%	8.87%	10.1%	7.67%	5.17%	3.38%	104%	125%	126%	131%	86.9%	39.9%	10.7%	8.94%	8.79%	5.46%	3.79%
